According to patent publication US7344884B2, “Peptides promoting cell adherence, growth and secretion” (Becton, Dickinson and Company, priority 2001, dated 2008):

System: PDGF secretion by CHO cells producing rPDGF (CRL 9359/CRL9360)
Test: Sandwich ELISA for PDGF in supernatant of CHO cells cultured with test peptide
Assay type: cell-based, Chinese Hamster
Protocol: To identify peptides in a particular library which positively affected cell expression and secretion, each test peptide was added to a well containing a monolayer of chinese hamster ovary cells. The selected cells were anchorage-dependent CHO cells known to secrete platelet derived growth factor, which were initially grown on the tissue culture surfaces using a media with serum. After the monolayer was established, a chemically defined base media and a single test peptide were added to each well. In the present work, secretion of PDGF was assessed in the presence and absence of peptides from the library by collecting supernatant from each well and performing an ELISA specific for PDGF on the supernatant. The output was the absorbance at 492 nm. Secretion was evaluated in a basal medium rich in amino acids, the necessary vitamins, metals, carbon source and concensus CHO culture factors. PDGF levels were compared to known standards spiked into the media used for culture.
CHO cells are the most widely used animal cell lines in the field of biotechnology for the production of therapeutically important pharmaceuticals (Martin et al, REVIEW, J. of Biotechnology. Progress 1998 14, 807-833). The Chinese Hamster Ovary Cell Lines producing rPDGF (CRL 9359/CRL9360) were obtained from the American Type Culture Collection, 12301 Parklawn Drive, Rockville, Md. 20852. The depositor was Amgen Inc. of Thousand Oaks, Calif. Further details about the cell lines and expressed products can be found in U.S. Pat. No. 5,175,255.
Cells were propagated in DMEM/FI2 media with 5% serum at 37° C. between 5-7% CO2. Passages were limited to 5 prior to seeding and PDGF expression was monitored by western blot and ELISA. Cells were routinely seeded at a density of approximately 1×10^4 cells per 20 ml culture media that was placed in a 250 ml canted neck polystyrene tissue culture treated flask (Becton Dickinson). Cells were cultured to confluency and trypsinized to yield cells for seeding.
1A Media was used as a PDGF negative control (pre-culture), to hydrate the 40 ng PDGF standard (pre-culture), to hydrate test peptides (pre-culture) and to normalize all other test and control PDGF results (post-culture). The 1A media was prepared by adding the following components to a 500 ml bottle of DMEM/F12 (GIBCO cat. No. 11330-032): 2.5 ml of a 10 mM NEAA stock (GIBCO Catalog 11140-050); 10 ml of a 200 mM L-glutamine stock (GIBCO Catalog 25030-08); 1 ml of a 50 mg/ml gentamycin sulfate stock (GIBCO Catalog 15750-0601); 150 μl of a 100 μM methotrexate Stock (Sigma Catalog M8407); 0.5 ml of a 7.5 mg/ml insulin Stock (Sigma I-6634); 50 μl of a 1 mg/ml insulin-like growth factor-stock (Long R3 Factor, Sigma Catalog No. I-1271); 2.5 grams of bovine serum albumin (Sigma Catalog No. A-7906); and 0.5 ml of a 7.5 mg/ml holo-transferrin stock (Sigma T-1283).
The CHO model cell lines are adherent cultures that have never been adapted to a serum-free environment. Accordingly, media containing serum was used to seed wells. Two formats, Overlay (O) and Wash (W) were used to introduce media containing test peptides to adhered cells.
In the O-Format, compounds were gently added on top of the seeding media on the second day. In the O-Format, 9360 cells were seeded at 1,000 cells per 96 well in a 125 μl volume of 1A media with 1.5% serum. 1A media (−serum) containing 12 mM of test peptide was overlaid 2 days later for a final peptide concentration of 6 mM and 0.75% serum. Cell culture supernatant was collected from each test environment on day 10 for later PDGF assay.
In the W-Format, compounds were added on day 2 or 3 after the seeding media was removed. In the W-Format, 9359 and 9360 cells were seeded at 6,000 cells per 96 well in a 250 μl volume of DMEM/F12 with 5% serum. Three days later, the seeding media was removed and replaced with 250 μl of 1A media (−serum) containing 6 mM test peptide. Cell culture supernatant was collected on days 5 and 12 for later PDGF assay. […]

[1] = 6 mM peptide in 1A media, day 12 or sooner, 1A media post-culture value subtracted

Substance	Normalized Abs at 492 nm (relative PDGF level), MDL-400 Library [1]	also measured
16 (FKLVY; Synthetic peptide selected for biological activity) [Peptide 16]	1.38	–
19 (FKKKQ; Synthetic peptide selected for biological activity) [Peptide 19]	0.79	–
22 (FKKKK; Synthetic peptide selected for biological activity) [Peptide 22]	0.59	–
27 (KKPQY; Synthetic peptide selected for biological activity) [Peptide 27]	0.55	–
30 (KNQTY; Synthetic peptide selected for biological activity) [Peptide 30]	0.50	–
31 (FKKKV; Synthetic peptide selected for biological activity) [Peptide 31]	0.49	–
34 (HKNQT; Synthetic peptide selected for biological activity) [Peptide 34]	0.42	–
37 (EKKQT; Synthetic peptide selected for biological activity) [Peptide 37]	0.38	–
38 (EKKKK; Synthetic peptide selected for biological activity) [Peptide 38]	0.37	–
43 (DGKKT; Synthetic peptide selected for biological activity) [Peptide 43]	0.32	–
44 (KKPTT; Synthetic peptide selected for biological activity) [Peptide 44]	0.31	–
46 (FKKMY; Synthetic peptide selected for biological activity) [Peptide 46]	0.28	–
50 (DFFHK; Synthetic peptide selected for biological activity) [Peptide 50]	0.25	–
51 (AKKKK; Synthetic peptide selected for biological activity) [Peptide 51]	0.25	–
53 (AHKKK; Synthetic peptide selected for biological activity) [Peptide 53]	0.22	–
56 (AKKKT; Synthetic peptide selected for biological activity) [Peptide 56]	0.20	–
58 (HNPPY; Synthetic peptide selected for biological activity) [Peptide 58]	0.58	–
60 (AADEG; Synthetic peptide selected for biological activity) [Peptide 60]	0.45	–
63 (HHPST; Synthetic peptide selected for biological activity) [Peptide 63]	0.33	–
65 (ADELN; Synthetic peptide selected for biological activity) [Peptide 65]	0.23	–
AFFFQ (Synthetic peptide selected for biological activity) [SEQ ID NO:12]	0.43	–
EEEMY (Synthetic peptide selected for biological activity) [SEQ ID NO:13]	–	Normalized Abs at 492 nm (relative PDGF level), Follow-Up Library [1]: 1.37
KFIFG (Synthetic peptide selected for biological activity) [SEQ ID NO:45]	–	effect on PDGF expression/accumulation in CHO cells (result in words) (library screening): positive
